Experimental data from paper PMC2705655, “The Nicotinic Acetylcholine Receptors of the Parasitic Nematode Ascaris suum: Formation of Two Distinct Drug Targets by Varying the Relative Expression Levels of Two Subunits” (PLoS Pathogens, 2009).

Experiments:
Assay in all cases: two-electrode voltage clamp, Xenopus oocytes
Format in all cases: cell-based
[1] = molecular target: T1, 5:1 Asu-unc-38:Asu-unc-29 receptor, putative (Asu-UNC-38)3(Asu-UNC-29)2, N-subtype nAChR (Ascaris suum, UniProt A7UFK6+A9XWS2); settings: -60 mV; cRNA ratio 5:1; response too small to quantify
T1 construct: full-length cDNAs of both subunits in pT7TS, cRNAs co-injected 5:1 into Xenopus oocytes; no tag
T1 sequence (A7UFK6 22-513): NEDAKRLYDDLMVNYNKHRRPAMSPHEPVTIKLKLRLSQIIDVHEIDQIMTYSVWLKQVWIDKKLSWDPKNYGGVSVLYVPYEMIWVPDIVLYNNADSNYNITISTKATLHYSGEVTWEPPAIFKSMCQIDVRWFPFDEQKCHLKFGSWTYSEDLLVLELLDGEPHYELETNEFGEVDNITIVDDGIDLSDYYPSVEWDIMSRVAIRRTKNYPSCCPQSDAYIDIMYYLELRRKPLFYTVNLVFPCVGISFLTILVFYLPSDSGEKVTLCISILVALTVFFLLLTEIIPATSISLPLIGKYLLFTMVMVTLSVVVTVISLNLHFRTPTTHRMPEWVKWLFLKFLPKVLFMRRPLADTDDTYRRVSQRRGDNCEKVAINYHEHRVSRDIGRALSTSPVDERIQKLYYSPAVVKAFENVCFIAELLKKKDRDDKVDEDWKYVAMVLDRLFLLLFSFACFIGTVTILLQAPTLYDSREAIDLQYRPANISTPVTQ
T1 sequence (A9XWS2 27-513): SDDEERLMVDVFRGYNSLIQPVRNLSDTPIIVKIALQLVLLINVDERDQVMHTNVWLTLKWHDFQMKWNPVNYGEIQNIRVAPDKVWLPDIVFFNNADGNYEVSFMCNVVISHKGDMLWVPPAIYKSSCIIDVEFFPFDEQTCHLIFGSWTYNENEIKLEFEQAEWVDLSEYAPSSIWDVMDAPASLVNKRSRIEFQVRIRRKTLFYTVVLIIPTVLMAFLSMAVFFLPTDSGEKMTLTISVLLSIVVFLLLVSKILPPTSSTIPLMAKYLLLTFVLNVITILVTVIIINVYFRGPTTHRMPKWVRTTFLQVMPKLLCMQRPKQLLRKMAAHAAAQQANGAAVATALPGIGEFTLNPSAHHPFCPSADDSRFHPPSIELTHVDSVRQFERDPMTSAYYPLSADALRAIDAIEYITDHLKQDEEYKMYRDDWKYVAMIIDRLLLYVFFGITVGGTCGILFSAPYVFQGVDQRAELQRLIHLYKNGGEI

[2] = molecular target: T2, 1:5 Asu-unc-38:Asu-unc-29 receptor, putative (Asu-UNC-38)2(Asu-UNC-29)3, L-subtype nAChR (Ascaris suum, UniProt A7UFK6+A9XWS2)
T2 construct: full-length cDNAs of both subunits in pT7TS, cRNAs co-injected 1:5 into Xenopus oocytes; no tag
T2 sequence (A7UFK6 22-513): T1 sequence (A7UFK6 22-513)
T2 sequence (A9XWS2 27-513): T1 sequence (A9XWS2 27-513)
From the text: two-electrode voltage clamp, Xenopus oocytes on 1:5 Asu-unc-38:Asu-unc-29 receptor, putative (Asu-UNC-38)2(Asu-UNC-29)3, L-subtype nAChR

[3] = molecular target: T1, 5:1 Asu-unc-38:Asu-unc-29 receptor, putative (Asu-UNC-38)3(Asu-UNC-29)2, N-subtype nAChR
From the text: two-electrode voltage clamp, Xenopus oocytes on 5:1 Asu-unc-38:Asu-unc-29 receptor, putative (Asu-UNC-38)3(Asu-UNC-29)2, N-subtype nAChR

[4] = molecular target: T2, 1:5 Asu-unc-38:Asu-unc-29 receptor, putative (Asu-UNC-38)2(Asu-UNC-29)3, L-subtype nAChR; settings: -60 mV; cRNA ratio 1:5; response too small to quantify

| SMILES | two-electrode voltage clamp, Xenopus oocytes [1] | EC50 [2] [nM] | EC50 [3] [nM] | two-electrode voltage clamp, Xenopus oocytes [4] |
| --- | --- | --- | --- | --- |
| CN1CCCN=C1/C=C/c1cccs1 [pyrantel] | but gave very little response to pyrantel | 398 |  |  |
| CN1CCCN=C1/C=C/c1cccc(O)c1 [oxantel] |  |  | 4070 | but gave a negligible response to oxantel |
